Results on 13 compounds are retold here after paper PMC4281095 (Journal of Medicinal Chemistry, 2014).

In one assay the target is hIMPDH2 (Homo sapiens, UniProt P12268). The assay is described as follows: Assessment of hIMPDH2 inhibition, NADH production. The format is biochemical. Conditions: read-out: hIMPDH2 inhibition.
Assay [1] addresses T1, CpIMPDH (Cryptosporidium parvum, UniProt Q8T6T2).
T1 sequence (Q8T6T2 1-400): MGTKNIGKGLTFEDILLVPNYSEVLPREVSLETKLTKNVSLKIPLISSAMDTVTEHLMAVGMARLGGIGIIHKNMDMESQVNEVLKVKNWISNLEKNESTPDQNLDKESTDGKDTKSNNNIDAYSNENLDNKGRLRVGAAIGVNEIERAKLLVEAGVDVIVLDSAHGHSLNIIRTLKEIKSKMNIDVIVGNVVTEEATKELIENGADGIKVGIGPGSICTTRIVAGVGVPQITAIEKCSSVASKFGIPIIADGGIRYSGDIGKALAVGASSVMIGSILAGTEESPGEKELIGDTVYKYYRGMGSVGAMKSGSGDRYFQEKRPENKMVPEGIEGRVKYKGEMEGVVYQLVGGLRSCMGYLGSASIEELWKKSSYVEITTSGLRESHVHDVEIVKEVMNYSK
Briefly: CpIMPDH inhibition, NADH production monitored by fluorescence. Conditions: for CpIMPDH inhibition, result in words: qualitative statement; for fold increase in CpIMPDH activity: relative to 8a; for fold loss of CpIMPDH potency / inhibition: relative to 8k.

In assay [2] the target is T1, CpIMPDH. The note with it: read-out: CpIMPDH IC50; cited from earlier work.
Another assay concerns the target hIMPDH1. The note with it: read-out: hIMPDH1 Ki; cited from earlier work.

For orientation: inhibition means how much of the control response was suppressed. On to `COc1cccc(NC(=O)Cn2ncc3c(=O)oc4ccccc4c32)c1` [8a, 4-oxo-N-(3-methoxyphenyl)-[1]benzopyrano[4,3-c]pyrazole-1(4H)-acetamide], for which, at hIMPDH2, the inhibition at 5 µM was < 20%.

Take `O=C(Cn1ncc2c(=O)oc3ccccc3c21)Nc1cccc(Cl)c1` [8b]: the “CpIMPDH inhibition, result in words” value on CpIMPDH [1] is given as “loss of inhibition”. Same read-out and setting: the entry for `O=C(Cn1ncc2c(=O)oc3ccccc3c21)Nc1ccccc1Cl` [8c] is “no inhibitory activity”. For the compound `O=C(Cn1ncc2c(=O)oc3ccccc3c21)Nc1ccc(F)cc1` [8d], at CpIMPDH [1], the “fold increase in CpIMPDH activity” value is reported as 3 fold. With `O=C(Cn1ncc2c(=O)oc3ccccc3c21)Nc1ccc(C(F)(F)F)cc1` [8e], the “fold increase in CpIMPDH activity” value on CpIMPDH [1] came out at 3 fold.

Take `O=C(Cn1ncc2c(=O)oc3ccccc3c21)Nc1ccc(Cl)cc1Cl` [8g]: at CpIMPDH [1], the “CpIMPDH inhibition, result in words” value was “no inhibition activity”.

`COc1ccc(NC(=O)Cn2ncc3c(=O)oc4ccccc4c32)cc1OC` [8i]: on CpIMPDH [1], the “CpIMPDH inhibition, result in words” value is “loss of enzyme inhibition”. The same measure, in the same setting: the same measure for `COc1cc(N(C)C(=O)Cn2ncc3c(=O)oc4ccccc4c32)ccc1Cl` [8l]: “loss of activity”. With `COc1cc(NC(=O)C(C)n2ncc3c(=O)oc4ccccc4c32)ccc1Cl` (centres unmarked) [8m], on CpIMPDH [1], the “fold loss of CpIMPDH potency / inhibition” value is 3 fold. `O=C(Cn1ncc2c(=O)oc3ccccc3c21)Nc1ccc2[nH]cnc2c1` [13a]: the “CpIMPDH inhibition, result in words” value at CpIMPDH [1] is reported as “only weak or no inhibitory activity”.

`O=C(Cn1ncc2c(=O)oc3ccccc3c21)Nc1ccc2[nH]ccc2c1` [13c]: the “CpIMPDH inhibition, result in words” value at CpIMPDH [1] is given as “only weak or no inhibitory activity”. For `COc1cc(NC(=O)Cn2ncc3c2-c2ccccc2OC3)ccc1Cl` [13e], the “fold loss of CpIMPDH potency / inhibition” value at CpIMPDH [1] came to 3 fold. In general, IC50 refers to the midpoint of a concentration-inhibition curve. The Ki is a dissociation constant, usually derived from enzyme kinetics or from competition with a known ligand. With `COc1c(C)c2c(c(O)c1C/C=C(\C)CCC(=O)O)C(=O)OC2` [mycophenolic acid], the half-inhibitory concentration (IC50) at CpIMPDH [2] is ~10 µM. Moreover, the Ki at hIMPDH1 was 0.033 µM.
